Test results as given in patent publication US20180327367A1, “MACROCYCLIC BROAD SPECTRUM ANTIBIOTICS” (priority 2015, published 2018).
Converted amounts (≈) assume the structure as drawn. Read-outs that look alike come from different tables or passages of the source.

Experiments:
Format in all cases: cell-based
[1] = tested on: Methicillin Resistant Staphylococcus aureus strain USA 300, NRS384; assay: Minimum inhibitory concentration, broth micro-dilution (CLSI), S. aureus; settings: for MIC: Staphylococcus aureus, MRSA / NRS 384 / USA300, 22 h
In short: (§1)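 CLSI broth microdilution in cation-adjusted Mueller Hinton Broth with 0.002% Tween-80; inoculum final OD600 0.0005, 22 hours at 35° C. Ten 2-fold dilutions starting at 4 μg/mL (protocol 2) or 0.5 μg/mL (protocol 3).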

[2] = tested on: Escherichia coli MC4100 harboring the IMP4213 (E. coli IMP); assay: microbe, parasite or virus in culture; settings: for MIC: Escherichia coli, 22 h
In short: as §1

[3] = tested on: Escherichia coli ATCC 25922; assay: Minimum inhibitory concentration, broth micro-dilution (CLSI), E. coli; settings: for MIC: Escherichia coli, ATCC25922, 22 h
[4] = read-out: MIC (μg/mL) S. aureus, MRSA USA 300 NRS384, 35° C., 22 hours
[5] = read-out: MIC (μg/mL) E. coli IMP, E. coli MC4100 IMP4213, increased outer-membrane permeability, 35° C., 22 hours
[6] = read-out: MIC (μg/mL) E. coli, E. coli ATCC 25922, 35° C., 22 hours
[7] = MRSA USA 300 NRS384, 35° C., 22 hours, read-out: MIC (μg/mL) S. aureus
[8] = E. coli ATCC 25922, 35° C., 22 hours, read-out: MIC (μg/mL) E. coli
[9] = read-out: MIC (μg/mL) S. aureus
[10] = read-out: MIC (μg/mL) E. coli IMP

| SMILES | MIC [2, 5] [µg/mL] | MIC [1, 7] [µg/mL] | MIC [3, 8] [µg/mL] | also measured |
| --- | --- | --- | --- | --- |
| CCCCCCCCCC(=O)N[C@H](CO)C(=O)N1CC(N)C[C@H]1C(=O)N(C)[C@@H]1C(=O)N[C@@H](C)C(=O)N[C@H](C(=O)NCC#N)Cc2ccc(OCCN)c(c2)-c2cc1ccc2OCCN (stereo partly drawn) [Compound 524-1] | 0.19 (≈ 0.213 µM) | – | – | MIC [1, 4]: 0.22 µg/mL (≈ 0.247 µM); MIC [3, 6]: 16 µg/mL (≈ 18 µM) |
| Cc1cc(-c2ccc(CC(C)C)nc2)ccc1C(=O)N[C@@H](CCN)C(=O)N(C)[C@@H]1C(=O)N[C@@H](C)C(=O)N[C@H](C(=O)NCC#N)Cc2ccc(OCCN)c(c2)-c2cc1ccc2OCCN [Compound 181] | 0.031 (≈ 0.0349 µM) | 0.13 (≈ 0.146 µM) | 2 (≈ 2.25 µM) | – |
| CCCCCCCCCCCCCC(=O)N[C@@H](CCN)C(=O)N(C)[C@@H]1C(=O)N[C@@H](C)C(=O)N[C@H](C(=O)NCC#N)Cc2ccc(OCC(=O)O)c(c2)-c2cc1ccc2OCCN [Compound 327] | 0.0078 (≈ 0.00904 µM) | 0.25 (≈ 0.29 µM) | 2 (≈ 2.32 µM) | – |
| CCCCCCCc1cc(C)c(C(=O)N[C@@H](CCN)C(=O)N(C)[C@@H]2C(=O)N[C@@H](C)C(=O)N[C@H](C(=O)NCC#N)Cc3ccc(OCCN)c(c3)-c3cc2ccc3OCCN)c(C)c1 [Compound 189] | 0.023 (≈ 0.0265 µM) | 0.031 (≈ 0.0357 µM) | 0.19 (≈ 0.219 µM) | – |
| CCCCCCCCc1ccc(C(=O)N[C@@H](CCN)C(=O)N(C)[C@@H]2C(=O)N[C@@H](C)C(=O)N[C@H](C(=O)NCC#N)Cc3ccc(OCCN)c(c3)-c3cc2ccc3OCCN)c(/C=C/C(=O)O)c1 [Compound 414] | – | – | – | MIC [1, 9]: 0.5 µg/mL (≈ 0.541 µM); MIC [2, 10]: 0.25 µg/mL (≈ 0.271 µM); MIC ([3]; read-out: MIC (μg/mL) E. coli): 64 µg/mL (≈ 69.3 µM) |
| CCCCCCCc1ccc(C(=O)N(C)[C@@H](CCN)C(=O)N(C)[C@@H]2C(=O)N[C@@H](C)C(=O)N[C@H](C(=O)NCC#N)Cc3ccc(OCCN)c(c3)-c3cc2ccc3OCCN)cc1 [Compound 396] | – | – | – | MIC [1, 9]: 0.094 µg/mL (≈ 0.11 µM); MIC [2, 10]: 0.094 µg/mL (≈ 0.11 µM); MIC ([3]; read-out: MIC (μg/mL) E. coli): 16 µg/mL (≈ 18.7 µM) |
| CCCCCCOCc1ccc(C(=O)N[C@@H](CCN)C(=O)N(C)[C@@H]2C(=O)N[C@@H](C)C(=O)N[C@H](C(=O)NCC#N)Cc3ccc(OCCN)c(c3)-c3cc2ccc3OCCN)c(Cl)c1 [Compound 297] | 0.0078 (≈ 0.00876 µM) | 0.063 (≈ 0.0707 µM) | 1 (≈ 1.12 µM) | – |
| C[C@@H]1NC(=O)[C@@H](N(C)C(=O)[C@H](CCN)NC(=O)c2ccc3ccccc3c2)c2ccc(OCCN)c(c2)-c2cc(ccc2OCCN)C[C@@H](C(=O)NCC#N)NC1=O [Compound 125] | 0.25 (≈ 0.316 µM) | 2 (≈ 2.53 µM) | 16 (≈ 20.2 µM) | – |
| CCCCCCCCCCNCCS(=O)(=O)N[C@@H](CCCN)C(=O)N(C)[C@@H]1C(=O)N[C@@H](C)C(=O)N[C@H](C(=O)NCC#N)Cc2ccc(OCCN)c(c2)-c2cc1ccc2OCCN [Compound 349] | 0.13 (≈ 0.145 µM) | 0.016 (≈ 0.0178 µM) | 8 (≈ 8.9 µM) | – |
| CCCCCCCCCCCNC(=O)C(CCN)C(=O)N(C)[C@@H]1C(=O)N[C@@H](C)C(=O)N[C@H](C(=O)NCC#N)Cc2ccc(OCCN)c(c2)-c2cc1ccc2OCCN (single isomer, unassigned) [Compound 497-P1] | – | – | – | MIC (μg/mL) S. aureus ([1]; MRSA USA 300 NRS384, 35° C., 22 hours): 0.063 µg/mL (≈ 0.0768 µM); MIC (μg/mL) E. coli IMP ([2]; E. coli MC4100 IMP4213, increased outer-membrane permeability, 35° C., 22 hours): 0.016 µg/mL (≈ 0.0195 µM); MIC (μg/mL) E. coli ([3]; E. coli ATCC 25922, 35° C., 22 hours): 2 µg/mL (≈ 2.44 µM) |
| CCCCCCCCCC(=O)N[C@@H](CCNC(C)=O)C(=O)N[C@@H](CCN)C(=O)N(C)[C@@H]1C(=O)N[C@@H](C)C(=O)N[C@H](C(=O)NCC#N)Cc2ccc(OCCN)c(c2)-c2cc1ccc2OCCN [Compound 386] | 0.5 (≈ 0.535 µM) | – | – | MIC [1, 4]: 0.38 µg/mL (≈ 0.407 µM); MIC [3, 6]: 64 µg/mL (≈ 68.5 µM) |
| CCCCCCCCCC(=O)N[C@@H](C)C(=O)NCCC(=O)N[C@@H](CCN)C(=O)N(C)[C@@H]1C(=O)N[C@@H](C)C(=O)N[C@H](C(=O)NCC#N)Cc2ccc(OCCN)c(c2)-c2cc1ccc2OCCN [Compound 364] | 0.75 (≈ 0.803 µM) | 0.38 (≈ 0.407 µM) | 48 (≈ 51.4 µM) | – |
| CCCCCCCCc1ccc(C(=O)N[C@@H](CCN)C(=O)N(C)[C@@H]2C(=O)N[C@@H](C)C(=O)N[C@H](C(=O)NCC#N)Cc3ccc(OCCN)c(c3)-c3cc2ccc3OCCN)c(Br)c1 [Compound 211] | 0.055 (≈ 0.059 µM) | 0.063 (≈ 0.0675 µM) | 0.11 (≈ 0.118 µM) | – |
| CCCCCCCCCC(=O)N[C@H](C)C(=O)NCCC(=O)N[C@@H](CCN)C(=O)N(C)[C@@H]1C(=O)N[C@@H](C)C(=O)N[C@H](C(=O)NCC#N)Cc2ccc(OCCN)c(c2)-c2cc1ccc2OCCN [Compound 365] | 0.5 (≈ 0.535 µM) | 0.38 (≈ 0.407 µM) | 64 (≈ 68.5 µM) | – |
| CCCCCCCCCCCCCC(=O)N[C@@H](CCN)C(=O)N(C)[C@@H]1C(=O)N[C@@H](C)C(=O)N[C@H](C(=O)NCC#N)Cc2ccc(OCCO)c(c2)-c2cc1ccc2OCCO [Compound 458] | 0.0078 (≈ 0.00918 µM) | 0.25 (≈ 0.294 µM) | 16 (≈ 18.8 µM) | – |
| C[C@@H]1NC(=O)[C@@H](N(C)C(=O)[C@H](CCN)NC(=O)CCCc2ccc(F)cc2)c2ccc(OCCN)c(c2)-c2cc(ccc2OCCN)C[C@@H](C(=O)NCC#N)NC1=O [Compound 493] | 2 (≈ 2.49 µM) | 3 (≈ 3.74 µM) | > 64 | – |
| CCCCCCCCc1ccc2c(=O)n([C@@H](CCN)C(=O)N(C)[C@@H]3C(=O)N[C@@H](C)C(=O)N[C@H](C(=O)NCC#N)Cc4ccc(OCCN)c(c4)-c4cc3ccc4OCCN)c(C)nc2c1 [Compound 487] | 0.25 (≈ 0.28 µM) | 0.5 (≈ 0.56 µM) | 8 (≈ 8.96 µM) | – |
| CCCCCCCCCC(=O)N[C@@H](CCC(N)=O)C(=O)N[C@@H](CCN)C(=O)N(C)[C@@H]1C(=O)N[C@@H](C)C(=O)N[C@H](C(=O)NCC#N)Cc2ccc(OCCN)c(c2)-c2cc1ccc2OCCN [Compound 385] | 0.5 (≈ 0.543 µM) | – | – | MIC [1, 4]: 0.25 µg/mL (≈ 0.272 µM); MIC [3, 6]: 32 µg/mL (≈ 34.8 µM) |
| C[C@@H]1NC(=O)[C@@H](N(C)C(=O)[C@H](CCO)NC(=O)c2ccc(-c3ccc(Cl)cc3)cc2)c2ccc(OCCN)c(c2)-c2cc(ccc2OCCN)C[C@@H](C(=O)NCC#N)NC1=O [Compound 259] | 0.25 (≈ 0.293 µM) | 0.5 (≈ 0.586 µM) | 64 (≈ 75 µM) | – |
| CCCCCCc1ccc(C(=O)N2CCC(N)C[C@@H]2C(=O)N(C)[C@@H]2C(=O)N[C@@H](C)C(=O)N[C@H](C(=O)NCC#N)Cc3ccc(OCCN)c(c3)-c3cc2ccc3OCCN)c(C)c1 (single isomer, unassigned) [Compound 526-1] | 0.13 (≈ 0.15 µM) | 0.19 (≈ 0.219 µM) | 16 (≈ 18.5 µM) | – |
| CCCCc1ccc(-c2ncc(C(=O)N[C@@H](CCN)C(=O)N(C)[C@@H]3C(=O)N[C@@H](C)C(=O)N[C@H](C(=O)NCC#N)Cc4ccc(O)c(c4)-c4cc3ccc4OCCN)c(C)n2)cc1 [Compound 503] | 0.002 (≈ 0.00236 µM) | 0.031 (≈ 0.0366 µM) | 0.13 (≈ 0.153 µM) | – |
| CCCCCCCc1ccc(C(=O)N[C@@H](CCN)C(=O)N(C)[C@@H]2C(=O)N[C@@H](C)C(=O)N[C@H](C(=O)NCC#N)Cc3ccc(O)c(c3)-c3cc2ccc3OCCN)c(C)c1 [Compound 314] | 0.023 (≈ 0.0284 µM) | 0.078 (≈ 0.0962 µM) | 0.44 (≈ 0.543 µM) | – |
| CCCCCCCCc1ccc(C(=O)N[C@@H](CCN)C(=O)N(C)[C@@H]2C(=O)N[C@@H](C)C(=O)N[C@H](C(=O)NCC#N)Cc3ccc(OCCN)c(c3)-c3cc2ccc3OCCN)c(OCC(=O)NCC#N)c1 [Compound 410] | 0.13 (≈ 0.135 µM) | 0.13 (≈ 0.135 µM) | 6 (≈ 6.21 µM) | – |
| CCCc1ccc(-c2ncc(C(=O)N[C@@H](CCN)C(=O)N(C)[C@@H]3C(=O)N[C@@H](C)C(=O)N[C@H](C(=O)NCC#N)Cc4ccc(OCCN)c(c4)-c4cc3ccc4OCCN)c(C)n2)cc1 [Compound 161] | 0.003 (≈ 0.00342 µM) | 0.031 (≈ 0.0354 µM) | 0.13 (≈ 0.148 µM) | – |
| CCCCCCOc1ccc(N2CCN(c3ccc(C(=O)N[C@@H](CCN)C(=O)N(C)[C@@H]4C(=O)N[C@@H](C)C(=O)N[C@H](C(=O)NCC#N)Cc5ccc(OCCN)c(c5)-c5cc4ccc5OCCN)cc3)CC2)cc1 [Compound 527] | 0.063 (≈ 0.0629 µM) | 0.063 (≈ 0.0629 µM) | 4 (≈ 3.99 µM) | – |
| C[C@@H]1NC(=O)[C@@H](N(C)C(=O)[C@H](CCCCN)NC(=O)c2ccc(-c3ccc(Cl)cc3)cc2)c2ccc(O)c(c2)-c2cc(ccc2O)C[C@@H](C(=O)N[C@@H](C)C#N)NC1=O [Compound 417] | 4 (≈ 4.95 µM) | 13 (≈ 16.1 µM) | > 64 | – |
| Cc1nc(-c2ccc(CC(C)C)cc2)ccc1C(=O)N[C@@H](CCN)C(=O)N(C)[C@@H]1C(=O)N[C@@H](C)C(=O)N[C@H](C(=O)NCC#N)Cc2ccc(OCCN)c(c2)-c2cc1ccc2OCCN [Compound 169] | 0.0078 (≈ 0.00877 µM) | 0.023 (≈ 0.0259 µM) | 0.13 (≈ 0.146 µM) | – |
